Measured values from PubChem BioAssay AID2060618 (Molecular Pharmacology Branch, DTP, NCI, 2025).

Test system: 454973-116-R2-J3-PDC spheroids, percent test/control viability
Experiment: Anticancer human tumor 454973-116-R2-J3-PDC patient-derived pancreatic carcinoma cell line growth inhibition [CLK]
Conditions: spheroids with HUVEC and MSC; for IC50: curve of first compound; for viability, T/C: stronger effect = lower value
Procedure, shortened: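 Patient-derived tumor cells grown as complex spheroids with HUVEC endothelial cells and mesenchymal stem cells, treated with drug combinations. Concentrations descend in half-log steps from near clinical Cmax, or from 10 microM if Cmax unknown.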

[1] = second compound 0.0316 µM, first compound 0.0316 µM
[2] = second compound 0.0316 µM, first compound 0.1 µM
[3] = second compound 0.0316 µM, first compound 0.316 µM
[4] = second compound 0.0316 µM, first compound 1 µM
[5] = second compound 0.0316 µM, first compound 3.16 µM
[6] = second compound 0.0316 µM, first compound 10 µM
[7] = second compound 0.1 µM, first compound 0.0316 µM
[8] = second compound 0.1 µM, first compound 0.1 µM
[9] = second compound 0.1 µM, first compound 0.316 µM
[10] = second compound 0.1 µM, first compound 1 µM
[11] = second compound 0.1 µM, first compound 3.16 µM
[12] = second compound 0.1 µM, first compound 10 µM
[13] = second compound 0.316 µM, first compound 0.0316 µM
[14] = second compound 0.316 µM, first compound 0.1 µM
[15] = second compound 0.316 µM, first compound 0.316 µM
[16] = second compound 0.316 µM, first compound 1 µM
[17] = second compound 0.316 µM, first compound 3.16 µM
[18] = second compound 0.316 µM, first compound 10 µM
[19] = second compound 1 µM, first compound 0.0316 µM
[20] = second compound 1 µM, first compound 0.1 µM
[21] = second compound 1 µM, first compound 0.316 µM
[22] = second compound 1 µM, first compound 1 µM
[23] = second compound 1 µM, first compound 3.16 µM
[24] = second compound 1 µM, first compound 10 µM
[25] = second compound 3.16 µM, first compound 0.0316 µM
[26] = second compound 3.16 µM, first compound 0.1 µM
[27] = second compound 3.16 µM, first compound 0.316 µM
[28] = second compound 3.16 µM, first compound 1 µM
[29] = second compound 3.16 µM, first compound 3.16 µM
[30] = second compound 3.16 µM, first compound 10 µM
[31] = second compound 10 µM, first compound 0.0316 µM
[32] = second compound 10 µM, first compound 0.1 µM
[33] = second compound 10 µM, first compound 0.316 µM
[34] = second compound 10 µM, first compound 1 µM
[35] = second compound 10 µM, first compound 3.16 µM
[36] = second compound 10 µM, first compound 10 µM
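Further: spheroids exposed to compounds for 7 days before readout.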

## COc1ccc([C@@H](O)c2cc(-c3ncnc4cc(N5CCOCC5)ccc34)c(F)cc2Cl)nn1 + CN1CCN(c2cc(C(=O)Nc3cc4cc(-c5cnn(C)c5)ccc4cn3)ccn2)CC1
Second compound 0.0316 µM
  IC50: > 10 µM
Second compound 0.1 µM
  IC50: 2.72 µM
Second compound 0.316 µM
  IC50: < 0.0316 µM
Second compound 1 µM
  IC50: < 0.0316 µM
Second compound 3.16 µM
  IC50: < 0.0316 µM
Second compound 10 µM
  IC50: < 0.0316 µM
[1]
  viability, T/C: 93.8%
[2]
  viability, T/C: 107%
[3]
  viability, T/C: 101%
[4]
  viability, T/C: 90.8%
[5]
  viability, T/C: 73.5%
[6]
  viability, T/C: 54.9%
[7]
  viability, T/C: 74.8%
[8]
  viability, T/C: 79.1%
[9]
  viability, T/C: 71.5%
[10]
  viability, T/C: 66.5%
[11]
  viability, T/C: 47.4%
[12]
  viability, T/C: 28.6%
[13]
  viability, T/C: 1.76%
[14]
  viability, T/C: 1.85%
[15]
  viability, T/C: 2.44%
[16]
  viability, T/C: 1.05%
[17]
  viability, T/C: 1.4%
[18]
  viability, T/C: 2.15%
[19]
  viability, T/C: 0.11%
[20]
  viability, T/C: 0.11%
[21]
  viability, T/C: 2.22%
[22]
  viability, T/C: 0.08%
[23]
  viability, T/C: 0.07%
[24]
  viability, T/C: 0.06%
[25]
  viability, T/C: 0.09%
[26]
  viability, T/C: 0.15%
[27]
  viability, T/C: 0.16%
[28]
  viability, T/C: 0.14%
[29]
  viability, T/C: 0.11%
[30]
  viability, T/C: 0.72%
[31]
  viability, T/C: 2.12%
[32]
  viability, T/C: 0.13%
[33]
  viability, T/C: 0.29%
[34]
  viability, T/C: 0.16%
[35]
  viability, T/C: 0.99%
[36]
  viability, T/C: 0.16%

## COc1cccc2c1C(=O)c1c(O)c3c(c(O)c1C2=O)CC(O)(C(=O)CO)CC3OC1CC(N)C(O)C(C)O1 (centres undefined) + CN1CCN(c2cc(C(=O)Nc3cc4cc(-c5cnn(C)c5)ccc4cn3)ccn2)CC1
Second compound 0.0316 µM
  IC50: < 0.0316 µM
Second compound 0.1 µM
  IC50: < 0.0316 µM
Second compound 0.316 µM
  IC50: < 0.0316 µM
Second compound 1 µM
  IC50: < 0.0316 µM
Second compound 3.16 µM
  IC50: < 0.0316 µM
Second compound 10 µM
  IC50: < 0.0316 µM
[1]
  viability, T/C: 40.8%
[2]
  viability, T/C: 27.2%
[3]
  viability, T/C: 21%
[4]
  viability, T/C: 8.81%
[5]
  viability, T/C: 0.25%
[6]
  viability, T/C: 0.19%
[7]
  viability, T/C: 29.2%
[8]
  viability, T/C: 26.5%
[9]
  viability, T/C: 17.9%
[10]
  viability, T/C: 3.51%
[11]
  viability, T/C: 0.16%
[12]
  viability, T/C: 0.16%
[13]
  viability, T/C: 1.16%
[14]
  viability, T/C: 1.16%
[15]
  viability, T/C: 1.46%
[16]
  viability, T/C: 0.14%
[17]
  viability, T/C: 0.33%
[18]
  viability, T/C: 0.12%
[19]
  viability, T/C: 0.11%
[20]
  viability, T/C: 0.15%
[21]
  viability, T/C: 1.47%
[22]
  viability, T/C: 0.11%
[23]
  viability, T/C: 0.12%
[24]
  viability, T/C: 0.18%
[25]
  viability, T/C: 0.08%
[26]
  viability, T/C: 0.45%
[27]
  viability, T/C: 0.15%
[28]
  viability, T/C: 0.15%
[29]
  viability, T/C: 0.17%
[30]
  viability, T/C: 0.1%
[31]
  viability, T/C: 0.12%
[32]
  viability, T/C: 0.43%
[33]
  viability, T/C: 0.13%
[34]
  viability, T/C: 0.12%
[35]
  viability, T/C: 0.14%
[36]
  viability, T/C: 0.11%
